The source of these data is PMC8820799, “Angiogenesis and anti-leukaemia activity of novel indole derivatives as potent colchicine binding site inhibitors” (Journal of Enzyme Inhibition and Medicinal Chemistry, 2022).

Data set [1] addresses T1, Tubulin isolated from porcine brain tissue (Sus scrofa, UniProt P02550+P02554).
T1 construct: purchased Cytoskeleton (Denver, CO), via Beyotime, China; host or cells: porcine brain tissue
In words: Tubulin polymerisation assay. Particulars: triplicate, mean ± SD; read-out: Tubulin (tubulin inhibitory polymerisation IC50). It is filed as biochemical. On the procedure:
Tubulin polymerisation was determined with the tubulin polymerisation assay kit (Cytoskeleton, Denver, CO which was purchased from Cytoskeleton, Beyotime, China. Tubulin isolated from porcine brain tissue was used in this commercial kit.) It is based on the principal that light is scattered by microtubules to an extent that is proportional to the concentration of the microtubule polymer. Compounds that interact with tubulin will alter the polymerisation of tubulin, and this can be detected using a spectrophotometer. Tubulin polymerisation dynamics was monitored through measuring the change of absorbance at 340 nm every 2 min for 30 min at 37 °C on a spectrophotometer.

The test system of another data set is HL60. The experiment in a line: CCK-8 assay, HL60. The data set is classed as cell-based. Particulars: Homo sapiens, HL-60; leukaemia, APL; CCK-8, 72 h. On the procedure:
(§1) Cells were seeded in 96-well plates at a density of 8 × 10^3 per well and exposed to different concentrations of compounds for 72 h. Subsequently, 10 µL CCK8 solution was added to each well and co-incubated for another 3–4 h at 37 °C. The absorbance was determined at 450 nm. Data was calculated with GraphPad Prism5 software.[32]
For orientation: Formazan colour is commonly taken as a measure of viable cells.

A further data set deals with K562. In words: CCK-8 assay, K562. The data set is classed as cell-based. Conditions: Homo sapiens, leukaemia, CML, CCK-8, 72 h. On the procedure: as §1
A further data set has as its system THP-1. In words: CCK-8 assay, THP-1. It is filed as cell-based. Particulars: Homo sapiens, leukaemia, AML, CCK-8, 72 h. On the procedure:
as §1

Another data set concerns Jurkat. In words: CCK-8 assay, Jurkat. It is filed as cell-based. Particulars: Homo sapiens, leukaemia, ALL, CCK-8, 72 h. On the procedure: as §1
The next data set has as its system leukaemia cell lines. In words: Anti-proliferation against a variety of leukaemia cell lines (CCK-8). The data set is classed as cell-based. Conditions: seven leukaemia cell lines; read-out: IC50 against a variety of leukaemia cell lines (range over panel). On the procedure:
as §1

Data set [2] concerns K562 cells. In words: Cell apoptosis assay by flow cytometry (Annexin V-PE/PI). The data set is classed as cell-based. Conditions: K562, 48 h; after treatment of 29e (control 5.95%); equals Q2+Q3 at 200 nM. As to the method: K562 cells at 8х10^4 cells/well were seeded in 12-well cell culture plates overnight and the cultured cells were incubated with a dose range of compounds 29e for 48 h. The treated or untreated cells were washed twice with PBS and stained by Annexin V-PE and PI for 15 min without light exposure according to the manufacturer’s protocol. Apoptosis was quantified using a flow cytometer ((Becton, Dickinson and Company, USA).[32]
(Flow cytometry measures light scatter and fluorescence of single cells or particles in a stream.)

The test system of data set [3] is HUVEC. The experiment in a line: Toxicity on HUVEC. It is filed as cell-based, human.
Data set [4] in a line: In vitro metabolic stability, human liver microsomes. The data set is classed as in vitro ADME. Conditions: 0.4 mg/mL protein. On the procedure:
The metabolic stability assay was performed by incubating the test compound in mouse or human liver microsomes (XenoTech, lot no. 1510256) at 37 °C and a protein concentration of 0.4 mg/mL. Microsomal incubations were performed at a substrate concentration of 0.5 µM. Data analysis. Species scaling factors were used to convert the in vitro CLint(mL/min/mg) to an in vivo CLint(mL/min/kg).
A general note: Liver microsomes are a subcellular fraction often used to study metabolism.

Data set [5] relates to K562 cells. In words: Immunofluorescence staining of microtubule network. The data set is classed as cell-based. Particulars: K562, 0.1 uM and 0.3 uM; Figure 4F.
Data set [6] has as its system HUVEC. The experiment in a line: Transwell cell invasion experiment. The data set is classed as cell-based, human. Conditions: 0.1 µM to 10 µM, concentration-dependent. On the procedure:
The upper surface of Transwell membrane was precoated with 40 µL Matrigel gel and incubated for 45 min at 37 °C for gelling. Then, cells were trypsinized and seeded at 6х10^4 per upper chamber, and cultured in 1% foetal bovine serum medium containing different concentrations of compounds. The chamber was then placed in a 24-well plate to which 10% FBS had been added. After 48 h incubation at 37 °C, both chambers were washed with PBS three times, and then fixed with 4% paraformaldehyde for 15 min, followed by staining with crystal violet. The non-invasive cells on the upper surface membrane were wiped with cotton swabs. The image of the cells on the bottom face was recorded and quantified under an inverted microscope. The results were the means calculated from three replicates of each experiment.[37]

The subject of data set [7] is HUVEC. The experiment in a line: Wound healing migration assay. The data set is classed as cell-based, human. Conditions: 0.1, 1 and 10 µM.
Data set [8] has as its system HUVEC. The experiment in a line: Tube formation assay. The data set is classed as cell-based, human. Particulars: 0.1, 1 and 10 µM. On the procedure: Matrigel matrix (Basement Membrane Matrix, BD Biosciences) was thawed at 4 °C overnight. At this point, 50 µL of the matrix solution was added to each well of a 96-well plate. After gelling at 37 °C for 30 min, the matrix was overlaid with 200 µL of medium containing 1 × 10^5 HUVECs per well, which was incubated for 6 h to allow capillary tubes to form. Different concentrations of compounds were added in the cultures and incubated for 6 h to monitor the morphological changes of cells and tubes. The disappearance of existing vasculature was photographed at 10х magnification. Values were expressed as percent change form control cultures grown with complete medium.[36] Standard dimensional parameters (percent area covered by HUVECs and total length of the HUVEC network per field) were noted, and standard topological parameters (number of meshes and branching points per field) were estimated.

Data set [9] has as its system K562 cell xenograft in zebrafish embryos. In words: Zebrafish xenograft of K562 cells. Particulars: 2 µM and 6 µM, compared with the control group. It is filed as in vivo. As to the method:
K562 cells were labelled with Red CMTPX according to the manufacturer’s protocol. Before the microinjections, Tg(flk:EGFP) embryos were kept at 28 °C and manually dechorionated few hours. At 48 hpf, 4 nL of cells suspension containing 400 labelled cells was microinjected into the yolk of anaesthetised embryos by a pneumatic pico pump (PV820, World Precision Instruments, USA). After injection, embryos were incubated to recover for at least 1 h at 28 °C, the embryos were distributed to 6-well plates with 20 embryos placed in each well. The injected xenografts were exposed to the indicated doses of compounds and maintained at 35 °C. DMSO (0.3%) was used as a vehicle control. The survival and development of the xenografted embryos was recorded every day until the end of experiment. At one day post injection (dpi), fluorescent microscopy was used to examine K562 cells size, death and migration in caudal region of anaesthetised zebrafish.

Data set [10] in a line: Preliminary cytotoxicity study on zebrafish embryos. Conditions: zebrafish, in vivo.
In the next data set the test system is zebrafish embryos. The description is as above. Particulars: at the concentration of 6 µM.

What is called IC50 is the concentration at which inhibition is half-maximal. The microsomal CLint is the capacity of the preparation to metabolise the compound, expressed as a volume cleared per time. As usually defined, the half-life is the time needed for the level to fall by half in the phase considered.

T1 sequence (P02554 whole entry): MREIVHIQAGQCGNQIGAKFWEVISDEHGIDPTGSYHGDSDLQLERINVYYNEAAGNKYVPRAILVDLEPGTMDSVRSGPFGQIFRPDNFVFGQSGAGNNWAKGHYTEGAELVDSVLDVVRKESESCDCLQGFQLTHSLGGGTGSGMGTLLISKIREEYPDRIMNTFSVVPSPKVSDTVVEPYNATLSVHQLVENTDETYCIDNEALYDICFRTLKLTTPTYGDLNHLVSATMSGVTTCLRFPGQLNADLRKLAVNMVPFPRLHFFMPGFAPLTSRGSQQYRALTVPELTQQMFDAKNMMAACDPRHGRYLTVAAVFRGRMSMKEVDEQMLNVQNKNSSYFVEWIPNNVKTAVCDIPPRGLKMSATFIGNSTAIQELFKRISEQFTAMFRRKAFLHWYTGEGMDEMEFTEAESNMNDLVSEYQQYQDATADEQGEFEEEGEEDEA
T1 sequence (P02550 whole entry): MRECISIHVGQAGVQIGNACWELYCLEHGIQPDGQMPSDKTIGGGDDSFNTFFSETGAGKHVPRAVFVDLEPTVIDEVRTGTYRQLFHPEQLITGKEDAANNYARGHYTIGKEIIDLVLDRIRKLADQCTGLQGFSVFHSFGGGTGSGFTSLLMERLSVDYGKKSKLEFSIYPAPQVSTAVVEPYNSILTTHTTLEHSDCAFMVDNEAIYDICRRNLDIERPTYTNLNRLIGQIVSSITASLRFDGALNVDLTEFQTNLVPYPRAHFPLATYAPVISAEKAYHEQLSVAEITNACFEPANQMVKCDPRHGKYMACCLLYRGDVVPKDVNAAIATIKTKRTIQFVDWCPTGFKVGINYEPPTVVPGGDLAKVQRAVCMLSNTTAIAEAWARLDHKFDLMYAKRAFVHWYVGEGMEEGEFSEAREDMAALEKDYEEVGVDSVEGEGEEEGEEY

Turning to `COc1cc(C(=O)/C=C/c2cn(S(=O)(=O)c3ccccc3)c3ccccc23)cc(OC)c1OC` [Compound 29e, (E)-3–(1-(Phenylsulfonyl)-1H-indol-3-yl)-1–(3,4,5-trimethoxyphenyl)prop-2-en-1-one], the half-maximal inhibitory concentration (IC50) in [1] is 4.8 ± 0.7 µM; in the data set on HL60 it was 0.18 ± 0.002 µM; with K562, 0.09 ± 0.001 µM; in the data set with THP-1, 0.37 ± 0.03 µM; with Jurkat, 1.22 ± 0.12 µM; in the data set on leukaemia cell lines, 0.09 to 1.22 µM. Moreover, the IC50 was determined as 58.6 µM with HUVEC [3] (Homo sapiens, HUVEC) and 44.6 µM in data set [10]. In the data set with K562 cells [2], the “percentage of apoptotic cell” value is on record as 45.81%. The “toxicity on HUVEC” value in the data set on HUVEC [3] (at the concentration of 10 µM) is reported as “did not cause any toxicity on HUVEC”. Besides, in data set [4], the microsomal CLint at 0.5 µM turned out to be 16 µL/min/mg. Moreover, the half-life at 0.5 µM in data set [4] (37 °C, read-out: Degradation half-life Human) stood at 35 min. Further, the “Effect on cellular microtubule network” value with K562 cells [5] is given as “conspicuous disorder for the microtubule network”. Besides, in the data set with HUVEC [6], the “HUVEC invasion (Transwell)” value is given as “the number of HUVEC invasion decreased”. In the data set with HUVEC [7], the “HUVEC wound closure / migration” value is listed as “markedly decreased the closure of wound scratching”. Besides, the HUVEC tubule-like networks entry with HUVEC [8] is “sharply reduced the width and length”. The “K562 fluorescence intensity and tumour area in zebrafish xenograft” value in data set [9] was “reduced intensities and decreased tumour area”. Further, the “toxicity on zebrafish embryos” value in the data set on zebrafish embryos is given as “did not cause the toxicity”.
